Test: xn = mol fraction of the nth substance listed
Conditions: Liquid, Bellows volumetry

CC(C)C [2-methylpropane] + O=C=O
mass density [kg/m3]
Conditions | x2 = 0.2482 | x2 = 0.4718 | x2 = 0.7506
360 K, 50000 kPa | – | – | 727.44
360 K, 60000 kPa | 617.73 | 664.02 | 753.47
360 K, 70000 kPa | 629.43 | 678.79 | 775.21
360 K, 80000 kPa | 639.78 | 691.87 | 793.79
360 K, 90000 kPa | 649.26 | 703.51 | 810.34
360 K, 100000 kPa | 658 | 714.09 | 825.34
360 K, 120000 kPa | 673.4 | 733.04 | 851.1
360 K, 140000 kPa | 686.88 | 749.43 | 872.92
360 K, 160000 kPa | 699.29 | 763.95 | 892.29
360 K, 180000 kPa | 710.13 | 777.13 | 909.66
360 K, 200000 kPa | 720.21 | 789.12 | 925.27
380 K, 20000 kPa | – | 521.68 | –
380 K, 30000 kPa | – | 568.93 | –
380 K, 40000 kPa | – | 600.05 | –
380 K, 50000 kPa | – | 623.65 | –
380 K, 60000 kPa | – | 642.83 | –
380 K, 70000 kPa | – | 658.77 | –
380 K, 80000 kPa | – | 672.89 | –
380 K, 90000 kPa | – | 685.61 | –
380 K, 100000 kPa | – | 697.01 | –
380 K, 120000 kPa | – | 716.82 | –
380 K, 140000 kPa | – | 734.35 | –
380 K, 160000 kPa | – | 749.48 | –
380 K, 180000 kPa | – | 763.2 | –
380 K, 200000 kPa | – | 775.73 | –
400 K, 10000 kPa | 408.28 | – | –
400 K, 20000 kPa | 486.62 | 481.65 | –
400 K, 30000 kPa | 523.46 | 539.19 | 557.06
400 K, 40000 kPa | 548.72 | 574.86 | 618.58
400 K, 50000 kPa | 568.35 | 601.24 | 660.8
400 K, 60000 kPa | 584.33 | 622.39 | 693.37
400 K, 70000 kPa | 598.36 | 640.1 | 719.26
400 K, 80000 kPa | 610.26 | 655.36 | 741.54
400 K, 90000 kPa | 620.93 | 668.68 | 760.76
400 K, 100000 kPa | 630.87 | 680.77 | –

Reference: the NIST ThermoML archive (doi:10.1016/j.jct.2011.06.012)
